Assay results published in article PMC10160475, “Biological evaluation and in silico studies of novel compounds as potent TAAR1 agonists that could be used in schizophrenia treatment” (Frontiers in Pharmacology, 2023).
Where two headings read alike, the source gives them in different places.

Key:
[1] = Liver microsomal stability, mouse
Experimental: (§1) Compounds were incubated with samples of liver microsomes from mice, rats, and humans and NADPH for 5, 10, 20, 30, or 60 min at 37°C. A cold acetonitrile solution containing tolbutamide was used to terminate the reaction. Testosterone and dextromethorphan were used as positive controls. LC-MS/MS was employed to determine the retention of compounds. The retention time, chromatogram acquisition, and chromatogram integration of compounds and positive control substances were analyzed using Analyst (AB Sciex, Framingham, MA, United States).

[2] = Liver microsomal stability, human
Experimental: as §1

D2S receptors = target: T1, D2S receptors (Homo sapiens, UniProt P14416); test: cAMP assay, inhibition at human dopamine D2S receptors; assay type: cell-based
T1 construct: expressed in transfected cells; host or cells: Flp-In-CHO cells
Experimental: With regard to D2L and D2S, recombinant Flp-In™-CHO cells expressing human dopamine D2L receptors or D2S receptors were cultured with Ham’s F-12K (Kaighn’s) medium supplemented with 10% FBS, penicillin (100 U/ml), streptomycin (100 μg/ml), and hygromycin B (600 μg/ml) at 37°C in an atmosphere of 5% CO2. The methods of cell inoculation and compound treatment were the same as those for TAAR1, and haloperidol was used as the MAX control. Percentage inhibition was calculated using the following equation: Inhibition %=mean RLUtest sample−mean RLUvehicle control/mean RLUMAX control−mean RLUvehicle control×100%.

[3] = Pharmacokinetics study in rats; assay type: in vivo, Sprague–Dawley rats
Experimental: Compound 50B was dissolved in physiologic (0.9%) saline. Male and female rats were fasted overnight before dosing to avoid the possible effects of food. Compound 50B was administered via intragastric (5 mg/kg) and intravenous (2 mg/kg) routes to female and male rats. Approximately 200 μL of whole blood was collected into heparin-coated tubes at 0.083, 0.25, 0.5, 1, 2, 3, 4, 6, 8, 12, and 24 h after dosing. Plasma was collected immediately by centrifugation (8,000 g, 5 min, room temperature). Blood was placed in a heparinized Eppendorf™ tube. Plasma was centrifuged, and the concentration of compounds in the sample was determined by LC-MS/MS after pre-treatment. Drug-concentration data were processed in a […] using WinNonlin™ 6.3 (Pharsight, Mountain View, CA, United States).

[4] = Tissue distribution (brain and plasma) in rats; assay type: in vivo, Sprague–Dawley rats
Experimental: Rats (three males and three females) were sacrificed at 0.25, 1, or 6 h after administration of 50B (5 mg/kg, i.g.). Blood and brain tissues were harvested. The concentration of compounds in all tissue and blood samples was determined by LC-MS/MS. Drug concentration data were processed in a non-atrioventricular model using WinNonlin™ 6.3.

[5] = Liver microsomal stability, monkey
human TAAR1 = target: T2, human TAAR1 (Homo sapiens, UniProt Q96RJ0); test: cAMP assay, functional agonist activity at human TAAR1; assay type: cell-based
T2 construct: expressed in transfected cells; host or cells: cAMP Hunter CHO-K1 AGTRL1 Gi cells
T2 sequence (Q96RJ0 1-339): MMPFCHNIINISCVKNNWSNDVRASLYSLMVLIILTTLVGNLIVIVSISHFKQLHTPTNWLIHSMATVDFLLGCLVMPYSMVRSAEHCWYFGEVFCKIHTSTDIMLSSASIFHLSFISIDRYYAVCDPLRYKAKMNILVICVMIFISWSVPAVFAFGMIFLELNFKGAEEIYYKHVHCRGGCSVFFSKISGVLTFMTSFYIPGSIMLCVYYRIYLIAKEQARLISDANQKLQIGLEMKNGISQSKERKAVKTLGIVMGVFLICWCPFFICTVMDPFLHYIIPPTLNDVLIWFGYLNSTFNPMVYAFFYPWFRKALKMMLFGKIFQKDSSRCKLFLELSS
Experimental: Cells were seeded in a total volume of 20 µL into white-walled, 384-well microplates, followed by incubation at 37°C for the appropriate time before testing. Different concentrations of compounds were added to cells, and incubation was undertaken at 37°C for 10 min, with p-tyramine used as the MAX control. cAMP modulation was determined using the DiscoverX HitHunter cAMP XS + assay. Percentage activity was calculated using the following equation: Activity %=mean RLUtest sample – mean RLUvehicle control/mean RLUMAX control – mean RLUvehicle control×100%.

[6] = Sprague-Dawley, rat, plasma, iv, male rats, 2 mg/kg
[7] = Sprague-Dawley, rat, plasma, po, male rats, 5 mg/kg, i.g.
[8] = male, Sprague-Dawley, rat, plasma, po, 5 mg/kg, i.g.

T1 sequence (P14416 1-414 isoform P14416-2): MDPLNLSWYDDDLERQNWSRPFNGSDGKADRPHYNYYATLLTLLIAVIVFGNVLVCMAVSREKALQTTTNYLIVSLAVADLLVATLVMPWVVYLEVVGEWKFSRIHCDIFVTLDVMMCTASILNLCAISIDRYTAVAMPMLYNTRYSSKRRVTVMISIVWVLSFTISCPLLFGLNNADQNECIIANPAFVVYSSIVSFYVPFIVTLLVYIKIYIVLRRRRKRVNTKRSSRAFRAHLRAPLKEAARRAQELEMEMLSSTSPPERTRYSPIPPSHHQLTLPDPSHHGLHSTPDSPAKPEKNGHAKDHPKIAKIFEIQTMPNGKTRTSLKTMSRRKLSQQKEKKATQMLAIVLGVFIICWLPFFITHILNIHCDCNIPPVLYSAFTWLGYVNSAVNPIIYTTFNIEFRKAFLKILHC

With `c1csc([C@@H]2CNCCO2)c1` [Compound 50B] the “Remaining (T = 60 min)” value ([1]; Mouse liver microsomes, 60 min) was 53.5%, the CLint scaled ([1]; mouse, liver microsomes) was 80.8 mL/min/kg and the half-life ([1]; mouse, liver microsomes) was 1.13 h. The “Remaining (T = 60 min)” value ([2]; Human liver microsomes, 60 min) was 77.2%, the CLint scaled ([2]; human, liver microsomes) was 7.74 mL/min/kg and the half-life ([2]; human, liver microsomes) was 2.68 h. The IC50 (D2S receptors) was > 100000 nM, the Emax (D2S receptors; haloperidol as MAX control, up to 100 μM, read-out: dopamine D2S antagonist Emax) was 24.9% and the Cmax [3, 6] was 6.8 µM. It also gave an MRT last [3, 6] of 1.46 ± 0.231 h, a Cmax [3, 7] of 4.38 µM and an MRT last [3, 7] of 3.03 ± 0.625 h. The CL/F ([3]; Sprague-Dawley, rat, plasma, po, male rats, 5 mg/kg, i.g., read-out: CL/F (converted)) was 26 mL/min/kg, the Vd/F ([3]; Sprague-Dawley, rat, plasma, po, male rats, 5 mg/kg, i.g., read-out: Vz/F) was 2.86 ± 0.104 L/kg and the CL/F ([3]; male rats, 2 mg/kg, i.v.) was 22.2 ± 3.52 mL/min/kg. For the same compound, the Vz/F ([3]; male rats, 2 mg/kg, i.v.) was 2.48 ± 0.485 L/kg, the AUC(0-t) ([3]; male rats, 5 mg/kg, i.g.) was 18,929 ± 1774 h* nM and the T1/2 ([3]; male rats, 5 mg/kg, i.g.) was 1.28 ± 0.140 h. For the same compound, the half-life ([3]; male, Sprague-Dawley, rat, plasma, iv, 2 mg/kg) was 1.31 ± 0.313 h, the AUC(0-t) ([3]; male, Sprague-Dawley, rat, plasma, iv, 2 mg/kg, i.v., read-out: AUC0-t) was 8.98 µM·h and the bioavailability ([3]; male, Sprague-Dawley, rat, plasma, oral, 5 mg/kg, i.g. vs 2 mg/kg i.v., read-out: F (oral bioavailability)) was ~84.3%. It also gave a Tmax [3, 8] of ~0.833 h, a half-life [3, 8] of ~1.28 h and an AUC(0-t) ([3]; male, Sprague-Dawley, rat, plasma, po, 5 mg/kg, i.g., read-out: AUC0-t) of ~18.9 µM·h. The “Concentration ratio brain to plasma compared with SEP-856” value ([4]; rats, 5 mg/kg i.g.) was “increased significantly compared with that of SEP-856”, the “Plasma concentration compared with SEP-856” value ([4]; rats, 5 mg/kg i.g., same time point) was “lower than that of SEP-856” and the “Detection in rat brain” value ([4]; single intragastric administration, 5 mg/kg, 0.25 to 6 h) was “detected in rat brains from 0.25 to 6 h”. For the same compound, the “Remaining (T = 60 min)” value ([5]; Monkey liver microsomes, 60 min) was 85.1%, the CLint scaled ([5]; monkey, liver microsomes) was < 13.5 mL/min/kg and the half-life ([5]; monkey, microsomes) was > 3.1 h. The EC50 (human TAAR1) was 405 nM and the Emax (human TAAR1; read-out: TAAR1 Agonist % Emax) was 80.1%.
